Test results as given in US12365656B2, “Oxazolidinone compounds and methods of use thereof as antibacterial agents” (priority 2019, dated 2025).
Values after ≈ are worked out from the molar mass of the structure shown. Like-named read-outs stand apart in the source and are kept apart here.

Tests used:
Assay type in all cases: cell-based
[1] = test system: mitochondrial protein synthesis in HepG2 cells; experiment: Mitochondrial protein synthesis assay; details: Homo sapiens, 96 h, 4 days, COX-1 relative to SDH-A / Janus Green, In Cell ELISA, read-out: MPS IC50
[2] = test system: Mycobacterium tuberculosis (Mtb-GFP; H37Rv pMSP12::GFP); experiment: microbe, parasite or virus in culture; details: Mycobacterium tuberculosis, H37RV, 168 h, pH 6.8, read-out: Mtb Glu MITC95
[3] = test system: Mycobacterium tuberculosis (Mtb-GFP; H37Rv pMSP12::GFP); experiment: microbe, parasite or virus in culture; details: Mycobacterium tuberculosis, H37RV, 168 h, pH 6.8, read-out: Mtb Cho MITC95

Row | Structure (SMILES) | IC50 [1] [µM] | MIC [2] [µM] | MIC [3] [µM]
1 | O=C1O[C@@H](CO)CN1c1cc(F)c(N2CCS(=O)(=O)CC2)c(F)c1 [Example 22, 4-{2,6-difluoro-4-[(5R)-5-(hydroxymethyl)-2-oxo-1,3-oxazolidin-3-yl]phenyl}-1λ^6-thiomorpholine-1,1-dione] | > 100 | 3.9 (≈ 1.41 µg/mL) | 6.3 (≈ 2.28 µg/mL)
2 | O=C1O[C@@H](CO)CN1c1cc(F)c(C2=CCS(=O)(=O)CC2)c(F)c1 [Example 15, 4-{2,6-difluoro-4-[(5R)-5-(hydroxymethyl)-2-oxo-1,3-oxazolidin-3-yl]phenyl}-3,6-dihydro-1λ6-thiopyran-1,1(2H)-dione] | > 100 | 1.6 (≈ 0.575 µg/mL) | 1.6 (≈ 0.575 µg/mL)
3 | O=C1O[C@@H](CO)CN1c1ccc(C2(F)CCS(=O)(=O)CC2)c(F)c1 [Example 24, 4-fluoro-4-[2-fluoro-4-[(5R)-5-(hydroxymethyl)-2-oxo-1,3-oxazolidin-3-yl]phenyl}-1λ^6-thiane-1,1-dione] | > 50 | 6.3 (≈ 2.28 µg/mL) | 6.3 (≈ 2.28 µg/mL)
4 | Cn1cc(-c2ccc(N3C[C@H](CO)OC3=O)cc2F)ccc1=O [Example 26, 5-{2-fluoro-4-[(5R)-5-(hydroxymethyl)-2-oxo-1,3-oxazolidin-3-yl]phenyl}-1-methylpyridin-2(1H)-one] | 28 | 6.3 (≈ 2.01 µg/mL) | 6.3 (≈ 2.01 µg/mL)
5 | O=C1O[C@@H](CO)CN1c1cc(F)c(N2CC3CS(=O)(=O)CC3C2)c(F)c1 (stereo partly drawn) [Example 17, 5-{2,6-difluoro-4-[(5R)-5-(hydroxymethyl)-2-oxo-1,3-oxazolidin-3-yl]phenyl}hexahydro-2λ6-thieno[3,4-c]pyrrole-2,2(1H)-dione] | > 100 | 2.3 (≈ 0.893 µg/mL) | 3.1 (≈ 1.2 µg/mL)
6 | O=C1O[C@@H](CO)CN1c1cc(F)c(C2(F)CCS(=O)(=O)CC2)c(F)c1 [Example 2, (5R)-3-[3,5-difluoro-4-(4-fluoro-1,1-dioxidotetrahydro-2H-thiopyran-4-yl)phenyl]-5-(hydroxymethyl)-1,3-oxazolidin-2-one] | > 100 | 1.9 (≈ 0.721 µg/mL) | 2.2 (≈ 0.835 µg/mL)
7 | CN1CC(C)(S(=O)(=O)c2ccc(-c3ccc(N4C[C@H](CO)OC4=O)cc3)cc2)C1 [Example 23, (5R)-3-[4'-(1,3-dimethylazetidine-3-sulfonyl)[1,1'-biphenyl]-4-yl]-5-(hydroxymethyl)-1,3-oxazolidin-2-one] | > 100 | 1.6 (≈ 0.666 µg/mL) | 3.1 (≈ 1.29 µg/mL)
8 | CS(=O)(=O)Cc1ccc(-c2ccc(N3C[C@H](CO)OC3=O)cc2F)cc1 [Example 39] | 1.5 | 1.6 (≈ 0.607 µg/mL) | 1.2 (≈ 0.455 µg/mL)
9 | CSc1ccc(-c2ccc(N3C[C@H](CO)OC3=O)cc2F)cc1 [Example 4, (5R)-3-[2-fluoro-4′-(methylsulfanyl)[1,1′-biphenyl]-4-yl]-5-(hydroxymethyl)-1,3-oxazolidin-2-one] | > 100 | 0.21 (≈ 0.07 µg/mL) | 0.24 (≈ 0.08 µg/mL)
10 | O=C1O[C@@H](CO)CN1c1cc(F)c(N2CCN(C(=O)C3CC3)C3CC32)c(F)c1 (stereo partly drawn) [Example 21, (5R)-3-{4-[5-(cyclopropanecarbonyl)-2,5-diazabicyclo[4.1.0]heptan-2-yl]-3,5-difluorophenyl}-5-(hydroxymethyl)-1,3-oxazolidin-2-one] | > 13 | 6.3 (≈ 2.48 µg/mL) | 3.1 (≈ 1.22 µg/mL)
11 | CS(=O)(=O)c1ccc(-c2ccc(N3C[C@H](CO)OC3=O)cc2F)cc1 [Example 1, (5R)-3-[2-fluoro-4′-(methylsulfonyl)biphenyl-4-yl]-5-(hydroxymethyl)-1,3-oxazolidin-2-one] | 7 | 1 (≈ 0.365 µg/mL) | 1.2 (≈ 0.438 µg/mL)
12 | CS(=O)(=O)c1ccc(-c2ccc(N3C[C@H](CO)OC3=O)cc2)cc1 [Example 28, (5R)-5-(hydroxymethyl)-3-[4′-(methanesulfonyl)[1,1′-biphenyl]-4-yl]-1,3-oxazolidin-2-one] | 32 | 1.6 (≈ 0.556 µg/mL) | 1.6 (≈ 0.556 µg/mL)
13 | CC(=O)N1CCN(c2c(F)cc(N3C[C@H](CO)OC3=O)cc2F)C2CC21 (stereo partly drawn) [Example 18, (5R)-3-[4-(5-acetyl-2,5-diazabicyclo[4.1.0]heptan-2-yl)-3,5-difluorophenyl]-5-(hydroxymethyl)-1,3-oxazolidin-2-one] | > 100 | 3.1 (≈ 1.14 µg/mL) | 3.1 (≈ 1.14 µg/mL)
14 | CN1CC(C)(S(=O)(=O)c2ccc(-c3ccc(N4C[C@H](CO)OC4=O)cc3F)cc2)C1 [Example 14, (5R)-3-[4'-(1,3-dimethylazetidine-3-sulfonyl)-2-fluoro[1,1′-biphenyl]-4-yl]-5-(hydroxymethyl)-1,3-oxazolidin-2-one] | 23 | 0.78 (≈ 0.339 µg/mL) | 0.78 (≈ 0.339 µg/mL)
15 | O=C1O[C@@H](CO)CN1c1ccc(-c2ccn3ncnc3c2)c(F)c1 [Example 8, (5R)-3-[3-fluoro-4-([1,2,4]triazolo[1,5-a]pyridin-7-yl)phenyl]-5-(hydroxymethyl)-1,3-oxazolidin-2-one] | 3.7 | 1.5 (≈ 0.492 µg/mL) | 1.8 (≈ 0.591 µg/mL)
16 | O=C1O[C@@H](CO)CN1c1cc(F)c(C2(F)CCS(=O)(=O)CC2)c(Cl)c1 [Example 30, 4-{2-chloro-6-fluoro-4-[(5R)-5-(hydroxymethyl)-2-oxo-1,3-oxazolidin-3-yl]phenyl}-4-fluoro-1λ^6-thiane-1,1-dione] | > 100 | 6.3 (≈ 2.49 µg/mL) | 13 (≈ 5.15 µg/mL)
17 | O=C1O[C@@H](CO)CN1c1ccc(-c2ccc(S(=O)(=O)C3CCC3)cc2)c(F)c1 [Example 29, (5R)-3-[4′-(cyclobutanesulfonyl)-2-fluoro[1,1′-biphenyl]-4-yl]-5-(hydroxymethyl)-1,3-oxazolidin-2-one] | > 100 | 3.1 (≈ 1.26 µg/mL) | 3.1 (≈ 1.26 µg/mL)
18 | O=C1O[C@@H](CO)CN1c1ccc(C2(F)CCS(=O)(=O)CC2)cc1 [Example 36, 4-fluoro-4-{4-[(5R)-5-(hydroxymethyl)-2-oxo-1,3-oxazolidin-3-yl]phenyl}-1λ^6-thiane-1,1-dione] | > 50 | 50 (≈ 17.2 µg/mL) | 38 (≈ 13 µg/mL)
19 | O=C1O[C@@H](CO)CN1c1ccc(-c2ccc(S(=O)(=O)N3CCC3)cc2)c(F)c1 [Example 38, (5R)-3-[4′-(azetidine-1-sulfonyl)-2-fluoro[1,1′-biphenyl]-4-yl]-5-(hydroxymethyl)-1,3-oxazolidin-2-one] | > 13 | 6.3 (≈ 2.56 µg/mL) | 6.3 (≈ 2.56 µg/mL)
20 | O=C1O[C@@H](CO)CN1c1ccc(-c2ccc(OCCO)cc2)c(F)c1 [Example 12, (5R)-3-[2-fluoro-4'-(2-hydroxyethoxy)[1,1′-biphenyl]-4-yl]-5-(hydroxymethyl)-1,3-oxazolidin-2-one] | 19 | 0.78 (≈ 0.271 µg/mL) | 0.39 (≈ 0.135 µg/mL)
21 | N#CC1(c2c(F)cc(N3C[C@H](CO)OC3=O)cc2F)CCS(=O)(=O)CC1 [Example 16, 4-{2,6-difluoro-4-[(5R)-5-(hydroxymethyl)-2-oxo-1,3-oxazolidin-3-yl]phenyl}-1,1-dioxo-1λ6-thiane-4-carbonitrile] | 50 | 1.6 (≈ 0.618 µg/mL) | 1.6 (≈ 0.618 µg/mL)
22 | O=C1O[C@@H](CO)CN1c1ccc(-c2ccc(S(=O)(=O)C3COC3)cc2)cc1 [Example 33, (5R)-5-(hydroxymethyl)-3-[4′-(oxetane-3-sulfonyl)[1,1′-biphenyl]-4-yl]-1,3-oxazolidin-2-one] | 9.7 | 3.1 (≈ 1.21 µg/mL) | 2.3 (≈ 0.896 µg/mL)
23 | CC(=O)NC[C@H]1CN(c2ccc(N3CCOCC3)c(F)c2)C(=O)O1 [linezolid, reference compound] | 8 | 4.58 (≈ 1.55 µg/mL) | 3.14 (≈ 1.06 µg/mL)
24 | O=C1O[C@@H](CO)CN1c1ccc(C2(F)CCS(=O)(=O)CC2)c(C(F)(F)F)c1 [Example 37, 4-fluoro-4-{4-[(5R)-5-(hydroxymethyl)-2-oxo-1,3-oxazolidin-3-yl]-2-(trifluoromethyl)phenyl}-1λ^6-thiane-1,1-dione] | > 100 | 50 (≈ 20.6 µg/mL) | 50 (≈ 20.6 µg/mL)
25 | O=C1O[C@@H](CO)CN1c1cc(F)c(C2(F)CCS(=O)(=O)CC2)c(F)c1F [Example 25, 4-fluoro-4-{2,3,6-trifluoro-4-[(5R)-5-(hydroxymethyl)-2-oxo-1,3-oxazolidin-3-yl]phenyl}-1λ^6-thiane-1,1-dione] | > 100 | 6.3 (≈ 2.5 µg/mL) | 6.3 (≈ 2.5 µg/mL)
26 | CC1(c2c(F)cc(N3C[C@H](CO)OC3=O)cc2F)CCS(=O)(=O)CC1 [Example 41, 4-{2,6-difluoro-4-[(5R)-5-(hydroxymethyl)-2-oxo-1,3-oxazolidin-3-yl]phenyl}-4-methyl-lλ^6-thiane-1,1-dione] | > 100 | 6.3 (≈ 2.36 µg/mL) | 9.4 (≈ 3.53 µg/mL)
27 | O=C1O[C@@H](CO)CN1c1ccc(C2(F)CCS(=O)(=O)CC2)c(Cl)c1 [Example 31, 4-{2-chloro-4-[(5R)-5-(hydroxymethyl)-2-oxo-1,3-oxazolidin-3-yl]phenyl}-4-fluoro-1λ^6-thiane-1,1-dione] | > 100 | 13 (≈ 4.91 µg/mL) | 13 (≈ 4.91 µg/mL)
28 | O=C1O[C@@H](CO)CN1c1ccc(-c2ccc(S(=O)(=O)C3CC3)cc2)cc1 [Example 32, (5R)-3-[4′-(cyclopropanesulfonyl)[1,1′-biphenyl]-4-yl]-5-(hydroxymethyl)-1,3-oxazolidin-2-one] | 30 | 3.1 (≈ 1.16 µg/mL) | 3.1 (≈ 1.16 µg/mL)
29 | Cc1cc(N2C[C@H](CO)OC2=O)ccc1C1(F)CCS(=O)(=O)CC1 [Example 35, 4-fluoro-4-{4-[(5R)-5-(hydroxymethyl)-2-oxo-1,3-oxazolidin-3-yl]-2-methylphenyl}-1λ^6-thiane-1,1-dione] | > 100 | 25 (≈ 8.94 µg/mL) | 50 (≈ 17.9 µg/mL)
30 | Cc1nnc2cc(-c3ccc(N4C[C@H](CO)OC4=O)cc3F)ccn12 [Example 19, (5R)-3-[3-fluoro-4-(3-methyl[1,2,4]triazolo[4,3-a]pyridin-7-yl)phenyl]-5-(hydroxymethyl)-1,3-oxazolidin-2-one] | 18 | 1.2 (≈ 0.411 µg/mL) | 1.2 (≈ 0.411 µg/mL)
